Source: patent US20240041042A1, “1-(PYRIDYL)-5-AZINYLPYRAZOLE DERIVATIVES, AND THEIR USE FOR CONTROL OF UNDESIRED PLANT GROWTH” (Bayer Aktiengesellschaft, priority 2020, published 2024)
Where two headings read alike, the source gives them in different places.

Tests used:
Assay type in all cases: in vivo
Lolium rigidum (LOLRI) [1] = assay: Pre-emergence herbicidal action against LOLRI
Procedure, shortened: (§1)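 Greenhouse pot trial: seeds sown, soil-covered, sprayed before emergence with compound in water (0.5% additive; 600 l/ha; ≤320 g/ha). Scoring visual, ~3 weeks, 0–100% scale vs untreated.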

[2] = tested on: Matricaria inodora (MATIN); assay: Pre-emergence herbicidal action against MATIN
Procedure, shortened: as §1

[3] = tested on: Verconica persica (VERPE); assay: Pre-emergence herbicidal action against VERPE; details: dosage 320 g/ha
Procedure, shortened: as §1

[4] = tested on: Echinochloa crus-galli (ECHCG); assay: Pre-emergence herbicidal action against ECHCG
Procedure, shortened: as §1

[5] = tested on: Abutilon theophrasti (ABUTH); assay: Pre-emergence herbicidal action against ABUTH; details: Dosage column 320 g/ha (title prints 3200 g/ha); scored visually after about 3 weeks; 100% = plants have died
Procedure, shortened: as §1

[6] = tested on: Amaranthus retroflexus (AMARE); assay: Pre-emergence herbicidal action against AMARE; details: visual scoring after about 3 weeks vs untreated controls
Procedure, shortened: as §1

[7] = tested on: Verconica persica (VERPE); assay: Post-emergence herbicidal action against VERPE
Procedure, shortened: (§2)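 Greenhouse plants sprayed at the one-leaf stage, 2–3 weeks after sowing, with WP or EC formulations plus 0.5% additive at 600 l/ha water. Activity rated visually after about 3 weeks versus untreated controls (100% = dead, 0% = like control), at 320 g/ha or lower.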

Avena fatua (AVEFA) [8] = assay: Pre-emergence herbicidal action against AVEFA; details: visual scoring after about 3 weeks vs untreated controls
Procedure, shortened: as §1

Avena fatua (AVEFA) [9] = assay: Post-emergence herbicidal action against AVEFA; details: visual rating about 3 weeks after treatment
Procedure, shortened: as §2

Lolium rigidum (LOLRI) [10] = assay: Post-emergence herbicidal action against LOLRI
Procedure, shortened: as §2

Zea mays (ZEAMX) = details: 20 g/ha, ZEAMX, effect in comparison to untreated controls
Procedure, shortened: (§3)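 Visual rating (% effect vs. untreated plants; 100% = plant death) made about 3 weeks after treatment. Plants had been sprayed at one-leaf stage, 2–3 weeks post-sowing, with aqueous WP/EC preparations containing 0.5% additive, 600 l/ha water volume; a, b, c mark dose levels.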

Oryza sativa (ORYSA) = details: crop plant compatibility
Procedure, shortened: as §3

[11] = tested on: Pharbitis purpurea (PHBPU); assay: Pre-emergence herbicidal action against PHBPU
Procedure, shortened: as §1

[12] = tested on: Alopecurus myosuroides (ALOMY); assay: Post-emergence herbicidal action against ALOMY; details: visual rating about 3 weeks after treatment vs untreated controls (100% = plants have died, 0% = like control plants)
Procedure, shortened: as §2

[13] = tested on: Matricaria inodora (MATIN); assay: Post-emergence herbicidal action against MATIN
Procedure, shortened: as §2

[14] = tested on: Polygonum convolvulus (POLCO); assay: Pre-emergence herbicidal action against POLCO
Procedure, shortened: as §1

Setaria viridis (SETVI) [15] = assay: Pre-emergence herbicidal action against SETVI
Procedure, shortened: as §1

Viola tricolor (VIOTR) [16] = assay: Pre-emergence herbicidal action against VIOTR
Procedure, shortened: as §1

[17] = tested on: Alopecurus myosuroides (ALOMY); assay: Pre-emergence herbicidal action against ALOMY; details: scored visually after about 3 weeks, 100% = plants have died
Procedure, shortened: as §1

[18] = tested on: Echinochloa crus-galli (ECHCG); assay: Post-emergence herbicidal action against ECHCG
Procedure, shortened: as §2

Viola tricolor (VIOTR) [19] = assay: Post-emergence herbicidal action against VIOTR
Procedure, shortened: as §2

[20] = tested on: Pharbitis purpurea (PHBPU); assay: Post-emergence herbicidal action against PHBPU
Procedure, shortened: as §2

Setaria viridis (SETVI) [21] = assay: Post-emergence herbicidal action against SETVI
Procedure, shortened: as §2

[22] = 80 g/ha, effect in comparison to untreated controls

CCOC(=O)[C@@H](C)Oc1nn(-c2ncccc2F)c(-c2ccc(F)nc2)c1Br [Example I-33]
80%: Pre-emergence action against ABUTH [5] | Pre-emergence action against AVEFA in % (Avena fatua (AVEFA) [8]; 80 g/ha) | Post-emergence action against LOLRI in % (Lolium rigidum (LOLRI) [10]; dosage 80 g/ha) | Post-emergence action against MATIN in % ([13]; dosage 80 g/ha)
100%: Pre-emergence action against LOLRI in % (Lolium rigidum (LOLRI) [1]; dosage 320 g/ha) | Pre-emergence action against VERPE in % [3] | Pre-emergence action against ECHCG in % ([4]; dosage 320 g/ha) | Pre-emergence action against AMARE in % ([6]; 320 g/ha) | Pre-emergence action against AVEFA in % (Avena fatua (AVEFA) [8]; 320 g/ha) | Pre-emergence action against POLCO in % ([14]; dosage 320 g/ha) | Pre-emergence action against SETVI in % (Setaria viridis (SETVI) [15]; dosage 320 g/ha) | Pre-emergence action against VIOTR in % (Viola tricolor (VIOTR) [16]; 320 g/ha, Viola tricolor) | Pre-emergence action against VIOTR in % (Viola tricolor (VIOTR) [16]; dosage 80 g/ha) | Pre-emergence action against ALOMY ([17]; 80 g/ha) | Pre-emergence action against ALOMY ([17]; 320 g/ha)
90%: Pre-emergence action against LOLRI in % (Lolium rigidum (LOLRI) [1]; dosage 80 g/ha) | Pre-emergence action against MATIN in % ([2]; dosage 320 g/ha) | Pre-emergence action against ECHCG in % ([4]; dosage 80 g/ha) | Pre-emergence action against AMARE in % ([6]; 80 g/ha) | Post-emergence action against VERPE in % ([7]; dosage 80 g/ha) | Post-emergence action against AVEFA in % (Avena fatua (AVEFA) [9]; 80 g/ha) | Pre-emergence action against PHBPU in % ([11]; dosage 320 g/ha) | Post-emergence action against ALOMY in % ([12]; 80 g/ha) | Pre-emergence action against POLCO in % ([14]; dosage 80 g/ha) | Pre-emergence action against SETVI in % (Setaria viridis (SETVI) [15]; dosage 80 g/ha) | Post-emergence action against ECHCG in % ([18]; dosage 80 g/ha)
10%: Post-emergence action against ZEAMX in % (crop plant compatibility) (Zea mays (ZEAMX)) | Post-emergence action against ORYSA in % (Oryza sativa (ORYSA); [22])
0%: Post-emergence action against ORYSA in % (Oryza sativa (ORYSA); 20 g/ha, effect vs untreated controls)

C[C@@H](Oc1nn(-c2nc(F)ccc2F)c(-c2cncc(F)c2)c1Br)C(=O)O [Example I-155]
100%: Pre-emergence action against LOLRI in % (Lolium rigidum (LOLRI) [1]; dosage 320 g/ha) | Pre-emergence action against VERPE in % [3] | Pre-emergence action against ECHCG in % ([4]; dosage 320 g/ha) | Pre-emergence action against AMARE in % ([6]; 320 g/ha) | Pre-emergence action against SETVI in % (Setaria viridis (SETVI) [15]; dosage 320 g/ha) | Pre-emergence action against VIOTR in % (Viola tricolor (VIOTR) [16]; 320 g/ha, Viola tricolor) | Pre-emergence action against VIOTR in % (Viola tricolor (VIOTR) [16]; dosage 80 g/ha) | Pre-emergence action against ALOMY ([17]; 320 g/ha)
90%: Pre-emergence action against LOLRI in % (Lolium rigidum (LOLRI) [1]; dosage 80 g/ha) | Pre-emergence action against MATIN in % ([2]; dosage 80 g/ha) | Pre-emergence action against MATIN in % ([2]; dosage 320 g/ha) | Pre-emergence action against ECHCG in % ([4]; dosage 80 g/ha) | Pre-emergence action against ABUTH [5] | Pre-emergence action against AMARE in % ([6]; 80 g/ha) | Pre-emergence action against AVEFA in % (Avena fatua (AVEFA) [8]; 320 g/ha) | Pre-emergence action against PHBPU in % ([11]; dosage 80 g/ha) | Pre-emergence action against PHBPU in % ([11]; dosage 320 g/ha) | Pre-emergence action against POLCO in % ([14]; dosage 80 g/ha) | Pre-emergence action against POLCO in % ([14]; dosage 320 g/ha) | Post-emergence action against PHBPU in % ([20]; dosage 320 g/ha) | Post-emergence action against SETVI in % (Setaria viridis (SETVI) [21]; dosage 320 g/ha)
10%: Post-emergence action against ORYSA in % (Oryza sativa (ORYSA); [22])
80%: Post-emergence action against VERPE in % ([7]; 320 g/ha, VERPE) | Post-emergence action against VERPE in % ([7]; dosage 80 g/ha) | Post-emergence action against AVEFA in % (Avena fatua (AVEFA) [9]; 320 g/ha) | Post-emergence action against LOLRI in % (Lolium rigidum (LOLRI) [10]; dosage 320 g/ha) | Post-emergence action against VIOTR in % (Viola tricolor (VIOTR) [19]; 80 g/ha) | Post-emergence action against VIOTR in % (Viola tricolor (VIOTR) [19]; 320 g/ha) | Post-emergence action against ALOMY in % ([12]; 320 g/ha) | Post-emergence action against MATIN in % ([13]; dosage 320 g/ha) | Post-emergence action against PHBPU in % ([20]; dosage 80 g/ha) | Pre-emergence action against SETVI in % (Setaria viridis (SETVI) [15]; dosage 80 g/ha) | Post-emergence action against SETVI in % (Setaria viridis (SETVI) [21]; dosage 80 g/ha) | Post-emergence action against ECHCG in % ([18]; dosage 80 g/ha) | Post-emergence action against ECHCG in % ([18]; dosage 320 g/ha)
